Data from ChEMBL document CHEMBL1122976, “Potential inhibitors of S-adenosylmethionine-dependent methyltransferases. 10. Base- and amino acid modified analogues of S-aristeromycinyl-L-homocysteine” (J Med Chem, 1985).

Legend:
[1] = target: T1, Phenylethanolamine N-methyltransferase (Bos taurus, UniProt P10938); test: Inhibition constant was evaluated against PNMT
T1 sequence (P10938 whole entry): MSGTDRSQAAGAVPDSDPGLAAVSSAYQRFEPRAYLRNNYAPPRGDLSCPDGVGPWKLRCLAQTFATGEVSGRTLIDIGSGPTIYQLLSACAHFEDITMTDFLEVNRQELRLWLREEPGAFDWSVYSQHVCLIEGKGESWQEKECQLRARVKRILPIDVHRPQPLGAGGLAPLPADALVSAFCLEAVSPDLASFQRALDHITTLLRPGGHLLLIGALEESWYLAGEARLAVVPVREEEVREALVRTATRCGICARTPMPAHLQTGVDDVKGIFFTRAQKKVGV

[2] = target: T2, Phenylethanolamine N-methyltransferase (Bos taurus) (UniProt P10938); test: Inhibition of PNMT at 0.2 mM
T2 sequence (whole entry): T1 sequence (P10938 whole entry)

[3] = target: T2, Phenylethanolamine N-methyltransferase (Bos taurus); test: Inhibition of PNMT at 2.0 mM
[4] = target: T3, Catechol O-methyltransferase (Rattus norvegicus) (UniProt P22734); test: Inhibition of Catechol O-methyltransferase at 0.2 mM
T3 sequence (whole entry): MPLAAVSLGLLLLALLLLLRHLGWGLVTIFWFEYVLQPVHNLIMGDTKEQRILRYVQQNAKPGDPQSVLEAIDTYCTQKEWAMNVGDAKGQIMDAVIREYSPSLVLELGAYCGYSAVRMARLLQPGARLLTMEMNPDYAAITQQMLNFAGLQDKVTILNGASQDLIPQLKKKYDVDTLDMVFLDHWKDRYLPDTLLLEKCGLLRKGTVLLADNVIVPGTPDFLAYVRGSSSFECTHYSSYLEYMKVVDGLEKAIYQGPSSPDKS

[5] = target: T3, Catechol O-methyltransferase (Rattus norvegicus); test: Inhibition of Catechol O-methyltransferase at 2.0 mM
[6] = target: Histamine N-methyltransferase (Cavia porcellus) (UniProt Q9EST2); test: Inhibition of Histamine N-methyl-transferase at 0.2 mM
Sequence of Histamine N-methyltransferase (Cavia porcellus) (Q9EST2 whole entry): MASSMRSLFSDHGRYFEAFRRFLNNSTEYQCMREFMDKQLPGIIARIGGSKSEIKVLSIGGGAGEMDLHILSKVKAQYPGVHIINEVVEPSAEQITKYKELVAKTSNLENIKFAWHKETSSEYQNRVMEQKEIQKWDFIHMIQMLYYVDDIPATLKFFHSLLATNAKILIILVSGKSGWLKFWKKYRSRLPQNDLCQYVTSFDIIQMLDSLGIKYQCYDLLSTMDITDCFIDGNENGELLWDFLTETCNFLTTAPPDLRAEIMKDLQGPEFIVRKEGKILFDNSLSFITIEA

[7] = target: Histamine N-methyltransferase (Cavia porcellus) (UniProt Q9EST2); test: Inhibition of Histamine N-methyl-transferase at 2.0 mM

Row | Ki [1] [µM] | inhibition [2] [%] | inhibition [3] [%] | inhibition [4] [%] | inhibition [5] [%] | inhibition [6] [%] | inhibition [7] [%] | SMILES
1 | 29 |  |  |  |  |  |  | Nc1ncnc2c1ncn2[C@@H]1O[C@H](CSCC[C@H](N)C(=O)O)[C@@H](O)[C@H]1O (stereo in doubt; 5) [S-ADENOSYLHOMOCYSTEINE]
2 |  | 10 | 22 | 14 | 42 | 0 | 9 | Nc1ncnc2c1ncn2[C@@H]1O[C@H](C[S+]([O-])CCC(N)C(=O)O)[C@@H](O)[C@H]1O (some centres undefined)
3 |  | 11 | 42 | 15 | 55 | 11 | 28 | CNc1ncnc2c1ncn2C1O[C@H](CSCCC(N)C(=O)O)[C@@H](O)[C@H]1O (some centres undefined)
4 | 62.3 |  |  |  |  |  |  | Nc1ncnc2c1ncn2[C@@H]1O[C@H](CSCC[C@H](N)C(=O)O)[C@@H](O)[C@H]1O (stereo in doubt; 9) [S-ADENOSYLHOMOCYSTEINE]
